The zone of inhibition is the extent of the growth-free halo in a diffusion test.

Test [1] deals with P. aeruginosa (ATCC27853). The test can be described thus: Anti-bacterial activity, inhibition zone diameter on agar. Particulars: for growth inhibition / bactericidal activity (inhibition zone): reference antibiotic 10 μg/mL. In kind it is cell-based, Pseudomonas aeruginosa. The protocol: P. aeruginosa (ATCC27853) was cultured in 3 mL LB culture medium, shaken at 220 rpm for 12 h at 37 °C and diluted to 1 × 10^6 CFU/mL. The culture disk was coated with 1% agar, and 100 μL bacterial suspension was added to the agar in the disk evenly. […] LP4C or reference antibiotics were then added in each hole. The disk was cultured for 12–16 h at 37 °C; the result was then observed and the inhibition zone diameter was measured.

The test system of test [2] is P. aeruginosa PAO1 strain. Details: method as in PMID 21852522. Particulars: cited from earlier work.
For test [3], the system named is P. aeruginosa (ATCC27853) biofilm. Briefly: Bacterial biofilm formation (FITC staining, crystal violet staining). In kind it is cell-based, Pseudomonas aeruginosa. Particulars: with 10 μg/mL LP4C. The protocol: The bacterial biofilm growth and measurement was performed according to our previously reported method. Briefly, P. aeruginosa (ATCC27853) was cultured in the tube with nutrient broth containing 2% (w/v) glucose, shaken at 220 rpm for 12 h at 37 °C. The suspension was diluted to 1 × 10^6 CFU/mL and added to 96-well plates, the bacteria was cultured for 24 h at 37 °C for biofilm growth and the planktonic bacterial of each well was removed by PBS rinsing three times. To observe the biofilm formation, the fluorescein isothiocyanate (FITC) was added into the plates and incubated for 2 h at 37 °C; the labeled biofilm was then washed by PBS and visualized under the fluorescence microscopy (Olympus CKX53, Tokyo, Japan). The measurement of biofilm was performed according to the following procedure: the mature biofilm was fixed with 150 μL methanol and left to air dry, then stained with 150 μL of 1% (w/v) crystal violet solution for 15 min at room temperature. The plate was rinsed with PBS three times and 150 μL of glacial acetic acid was added to each well; the optical density was measured at 630 nm optical density using a microplate reader (Bio-Tek ELX800, Berten, USA).

The mark [4] stands for this setting: supplementation 1, 10 and 100 μM.

Each structure is given as a SMILES string.

`C[C@@H](O)[C@H]1C(=O)N2C(C(=O)O)=C(SCCN=CN)C[C@H]12` [imipenem] came in with a zone of inhibition at 10 µg/mL in test [1] (Pseudomonas aeruginosa, ATCC27853, 10 μg/mL, value printed in Figure 1A) of 29.4 mm. Moreover, the “growth inhibition / bactericidal activity (inhibition zone)” value in test [1] is “could inhibit the growth of P. aeruginosa obviously”.
On to `CC(C)=CC[C@@H](O)C1=CC(=O)c2c(O)ccc(O)c2C1=O` [shikonin], for which, in test [2], the “concentration that inhibits biofilm formation” value is 200 µM.
`O=c1cc[nH]c(=O)[nH]1` [uracil, reference compound]: in test [3] (supplementation 10 and 100 μM), the “reversal of biofilm formation impaired by LP4C” value is reported as “could reverse the biofilm formation ability impaired by 10 μg/mL LP4C”.
For `CC(C)(O/N=C(\C(=O)N[C@@H]1C(=O)N2C(C(=O)[O-])=C(C[n+]3ccccc3)CS[C@H]12)c1csc(N)n1)C(=O)O` [ceftazidime], the “growth inhibition / bactericidal activity (inhibition zone)” value in test [1] is “no bactericidal activity”.
Turning to `O=c1ccn([C@@H]2O[C@H](COP(=O)(O)O)[C@@H](O)[C@H]2O)c(=O)[nH]1` [UMP, uridine monophosphate, reference compound], the “reversal of biofilm formation impaired by LP4C” value in test [3] (setting [4]) is listed as “could reverse the biofilm formation ability impaired by 10 μg/mL LP4C”.
Same read-out and setting: the entry for `O=c1ccn([C@@H]2O[C@H](CO[P@@](=O)(O)O[P@@](=O)(O)OP(=O)(O)O)[C@@H](O)[C@H]2O)c(=O)[nH]1` (stereo in doubt) [UTP, uridine triphosphate, reference compound] is “could reverse the biofilm formation ability impaired by 10 μg/mL LP4C”.

Values taken from article PMC10096344 (Molecules, 2023).
